Source: paper PMC10931776, “Modes of Interactions with DNA/HSA Biomolecules and Comparative Cytotoxic Studies of Newly Synthesized Mononuclear Zinc(II) and Heteronuclear Platinum(II)/Zinc(II) Complexes toward Colorectal Cancer Cells” (International Journal of Molecular Sciences, 2024)
Where two headings read alike, the source gives them in different places.

Columns and labels:
CT-DNA = experiment: Ethidium bromide/CT-DNA fluorescence quenching (EB displacement); format: binding; conditions: EB/CT-DNA 1:1, 5 µM, PBS pH 7.4, room temperature, λex 527 nm, λem 612 nm
Source text: Fluorescent spectroscopy allows the determination of the intercalation potential of compounds. Intercalation involves planar aromatic molecules binding between the base pairs of DNA chains, causing them to elongate. Ethidium bromide (EB) is commonly used as a DNA intercalator and produces high levels of fluorescent emissions at 612 nm when intercalating between DNA strands. However, the addition of compounds that can intercalate between DNA strands and suppress the effects of EB will reduce fluorescent emissions. If a complex is able to replace EB, fluorescence reduction will occur, indicating the complex’s ability to bind intercalatively. Figure 3 and Figures S10–S13 show the results of fluorescence titrations in the presence of intercalator EB, where the emission intensity of a constant CT-DNA/EB solution concentration of 5 µM was monitored with increasing complex concentration up to a ratio of 5.
To determine whether the complex could displace EB from the CT-DNA-EB complex, the interactions of the complex with CT-DNA were examined in the presence of EB. The CT-DNA-EB solution was formed by combining EB and CT-DNA solutions with a concentration of 5 μM at a pH of 7.4. The impact of the complex binding to the CT-DNA was measured by analyzing the fluorescence emission spectrum after the addition of the examined complexes solution in increasing concentration, Figure 3.
The binding affinity of the complexes C1–C5 to CT-DNA via intercalation was determined using fluorescence spectroscopy. All measurements were conducted at room temperature in 0.01 M PBS with a pH of 7.4. Fluorescence measurements were performed by adding increasing complex concentrations (0–50 μM) to a CT-DNA and EB solution. Before each measurement, the system was shaken at room temperature. The fluorescence intensity was measured with the wavelength of excitation at 527 nm and the wavelength of emission at 612 nm. The width of the excitation and emission slits (10 nm) and scan rate were maintained at a constant rate. The emission of the solution was recorded in the range of 550 to 750 nm. The Stern–Volmer constants, Ksv, were determined by Equation (2). I0/I = 1 + Ksv[Q](2) [Q] is the concentration of the complex, I0 and I represent emission intensities in the absence and presence of complex, and Ksv is the Stern–Volmer constant obtained from the slope of the plot of I0/I vs. [Q] [25, 26, 27, 28].

[1] = tested on: human colorectal carcinoma (SW480); experiment: MTT cytotoxicity assay, SW480; format: cell-based; conditions: 48 h; for IC50: read-out: IC50 ± SEM, SW480
Experimental: (§1) The in vitro cytotoxicity of newly synthesized mono- and heteronuclear platinum(II)/and zinc(II) complexes, featuring a 4,4′,4″-tri-tert-butyl-2,2′:6′,2″-terpyridine ligand (designated as C1–C5), was assessed using MTT assay procedures. This evaluation targeted various cell lines: mouse colorectal carcinoma (CT26), human colorectal carcinoma (HCT116 and SW480), and non-cancerous mouse mesenchymal stem cells (mMSC). These cell lines were exposed to synthesized complexes for 48 h, with concentrations ranging from 1.17 to 150 μM.
(§2) In our study, various cell lines were cultured, including mouse colorectal carcinoma (CT26), human colorectal carcinoma (HCT116 and SW480) obtained from ATCC, USA, and mouse mesenchymal stem cells (mMSC, Gibco), New York, NY, USA). These cell lines were consistently maintained in complete Dulbecco’s Modified Eagle Medium (DMEM) supplemented with 10% fetal bovine serum (FBS) (Sigma Aldrich, St. Louis, MO, USA), 100 IU/mL penicillin, and 100 μg/mL streptomycin antibiotics (Invitrogen, Carlsbad, CA, USA). The cultures were incubated at 37 °C in a humidified atmosphere of 5% carbon dioxide (CO2). […] The viability and count of the cells were determined using Trypan blue staining, ensuring the accuracy and reliability of the experimental outcomes.
(§3) The cytotoxic effects of five newly synthesized complexes, alongside cisplatin, were assessed through the MTT assay method, in line with previously established protocols. During the exponential growth phase, cells were collected from culture flasks, counted, and then seeded in 96-well culture plates at a density of 5·10^3 cells per well. Subsequent treatment involved exposing these cells to varying concentrations of the newly synthesized complexes and cisplatin (ranging from 1.17 to 150 μM) for a duration of 48 h, with fresh complete medium serving as the control. The results were quantified relative to the control (untreated cells), providing a comparative measure of cytotoxicity. Additionally, IC50 values, representing the concentration required to inhibit 50% of the cell viability, were calculated using Microsoft Office Excel 2010. Lastly, the data were presented as percentages of viable cells in accordance with the methodology outlined in the referenced study, facilitating a comprehensive understanding of the anticancer potential of these compounds.

[2] = tested on: mouse colorectal carcinoma (CT26); experiment: MTT cytotoxicity assay, CT26; format: cell-based; conditions: 48 h; for IC50: read-out: IC50 ± SEM, CT26
Experimental: as §1, §2, §3

[3] = target: T1, Human serum albumin (HSA) (Homo sapiens, UniProt P02768); experiment: HSA fluorescence quenching; format: binding; conditions: for Stern–Volmer constant Ksv, HSA: HSA 2 µM, complex 0–30 µM, PBS pH 7.4, room temperature, λex 295 nm
T1 construct: reagents in general came from Sigma-Aldrich, Acros Organics or Merck
T1 sequence (P02768 25-609): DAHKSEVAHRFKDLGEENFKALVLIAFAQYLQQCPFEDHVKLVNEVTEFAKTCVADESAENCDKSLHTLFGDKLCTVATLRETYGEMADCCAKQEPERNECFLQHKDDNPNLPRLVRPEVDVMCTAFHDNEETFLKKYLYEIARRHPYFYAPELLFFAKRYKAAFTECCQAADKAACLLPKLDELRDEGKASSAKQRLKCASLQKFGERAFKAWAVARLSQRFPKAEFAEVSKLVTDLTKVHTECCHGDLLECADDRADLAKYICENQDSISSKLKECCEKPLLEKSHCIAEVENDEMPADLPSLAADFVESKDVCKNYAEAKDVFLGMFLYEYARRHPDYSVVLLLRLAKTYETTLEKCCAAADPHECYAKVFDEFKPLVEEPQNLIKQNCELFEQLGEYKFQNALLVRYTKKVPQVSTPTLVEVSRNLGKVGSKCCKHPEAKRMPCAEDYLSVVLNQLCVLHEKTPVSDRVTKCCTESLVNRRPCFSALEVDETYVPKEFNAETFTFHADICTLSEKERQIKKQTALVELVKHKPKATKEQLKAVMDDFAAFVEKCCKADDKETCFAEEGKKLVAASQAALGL
Source text: Human serum albumin (HSA) produces a fluorescence signal when excited at 295 nm due to the tryptophan residues. This characteristic makes fluorescence spectroscopy an effective tool for studying complex interactions involving HSA. If the examined complex interacts with HSA, an increasing concentration of the complex will lead to a decrease in fluorescence, as shown in Figure 4 and Figures S14–S17. […] The Stern–Volmer equation (Equation (S2)) was used to determine the Stern–Volmer constant, Ksv, for the HSA interactions.
The binding affinity of the complexes C1–C5 to HSA has been determined through fluorescence quenching experiments. The measurements were conducted in a 0.01 M PBS with a pH of 7.4 at room temperature. The HSA concentration was kept constant at 2 μM while the concentration of complexes C1–C5 was increased from 0 to 30 μM, resulting in a significant decrease in emissions at 352 nm. Before each measurement, the system was shaken at room temperature. The fluorescence intensity was measured with the wavelength of excitation at 295 nm and recorded in the 300 to 500 nm range. The width of the excitation and emission slits (10 nm) and scan rate were maintained at a constant rate. The Stern–Volmer constants, Ksv, were determined by Equation (2).

[4] = tested on: mouse mesenchymal stem cells (mMSC); experiment: MTT cytotoxicity assay, mMSC; format: cell-based; conditions: 48 h, non-cancerous cells, read-out: IC50 ± SEM, mMSCs
Experimental: as §1
In the context of developing low-toxicity drugs, it is imperative to evaluate the antiproliferative activity against normal cells. The in vitro toxicity of the tested complexes toward normal mouse mesenchymal stem cells (mMSC) was examined. […] These findings indicate the possibility of enhanced in vivo tolerance for this complex.
as §2, §3

[5] = tested on: human colorectal carcinoma (HCT116); experiment: MTT cytotoxicity assay, HCT116; format: cell-based; conditions: 48 h; for IC50: read-out: IC50 ± SEM, HCT 116
Experimental: as §1, §2, §3

[6] = target: T1, Human serum albumin (HSA); design: method as in earlier work; conditions: literature value; ref [24]; cited from earlier work
B-DNA (PDB ID: 1BNA) = target: B-DNA (PDB ID: 1BNA); design: method as in PMID 36535193, doi:10.1002/aoc.7413; conditions: previously tested complexes; ref [11],[12]; read-out: Ki (inhibition constant), docking with DNA; cited from earlier work

| Stern–Volmer constant Ksv, HSA [3] | Molecule | Stern–Volmer constant Ksv, CT-DNA (CT-DNA) | Selectivity Index (IC50 mMSC/IC50), SW480 [1] | IC50 [1] | Selectivity Index (IC50 mMSC/IC50), CT26 [2] | IC50 [2] | IC50 [4] | Selectivity Index (IC50 mMSC/IC50), HCT 116 [5] | IC50 [5] | Ki (B-DNA (PDB ID: 1BNA)) | also measured |
| --- | --- | --- | --- | --- | --- | --- | --- | --- | --- | --- | --- |
| 5.8 ± 0.1 10^4 M^–1 | CC(C)(C)c1ccnc(-c2cc(C(C)(C)C)cc(-c3cc(C(C)(C)C)ccn3)n2)c1.N.N.[Cl-].[Cl-].[O-][Cl+3]([O-])([O-])[O-].[O-][Cl+3]([O-])([O-])[O-].[Pt+2].[Zn+2].c1cnccn1 [C2, [{cis-PtCl(NH3)2(μ-pyrazine)ZnCl(terpy^t^Bu)}](ClO4)2] | 2.9 ± 0.1 10^4 M^–1 | 0.4 | 25.7 ± 2.93 µM | 0.3 | 35.1 ± 39.6 µM | 10.1 ± 0.98 µM | 0.4 | 26.6 ± 25.9 µM |  |  |
|  | N.N.[Cl][Pt][Cl] [cisplatin, reference compound] |  | 0.7 | 10.1 ± 3.98 µM | 0.8 | 9.03 ± 3.55 µM | 7.32 ± 2.51 µM | 0.5 | 14.7 ± 2.21 µM |  | Stern–Volmer constant Ksv, HSA [6]: 0.24 ** 10^4 M^–1 |
|  | [{cis-PtCl(NH3)2(μ-4,4′-bipyridyl)ZnCl(terpy)}](ClO4)2 [C3b] |  |  |  |  |  |  |  |  | 1.01 µM |  |
|  | [{cis-PtCl(NH3)2(μ-4,4′-bipyridyl)ZnCl(terpy-Cl)}](ClO4)2 [C3a] |  |  |  |  |  |  |  |  | 52.1 µM |  |
| 22.7 ± 0.1 10^4 M^–1 | [{cis-PtCl(NH3)2(μ-4,4′-bipyridyl)ZnCl(terpy^t^Bu)}](CIO4)2 [C4] | 5.2 ± 0.1 10^4 M^–1 | 0.6 | 94.1 ± 9.89 µM | 0.3 | 183 ± 72.4 µM | 60.3 ± 24.7 µM | 0.7 | 89.4 ± 6.7 µM |  | Ksv value for HSA, order of magnitude ([3]; fluorescence quenching of HSA): ~10^5 M^−1 |
|  | [{cis-PtCl(NH3)2(μ-pyrazine)ZnCl(terpy)}](ClO4)2 [C1b] |  |  |  |  |  |  |  |  | 18.1 µM |  |
|  | [{cis-PtCl(NH3)2(μ-pyrazine)ZnCl(terpy-Cl)}](ClO4)2 [C1a] |  |  |  |  |  |  |  |  | 248 µM |  |
|  | [{trans-PtCl(NH3)2(μ-4,4′-bipyridyl)ZnCl(terpy)}](ClO4)2 [C4b] |  |  |  |  |  |  |  |  | 1.22 µM |  |
|  | [{trans-PtCl(NH3)2(μ-4,4′-bipyridyl)ZnCl(terpy-Cl)}](ClO4)2 [C4a] |  |  |  |  |  |  |  |  | 117 µM |  |
| 9.5 ± 0.1 10^4 M^–1 | [{trans-PtCl(NH3)2(μ-4,4′-bipyridyl)ZnCl(terpy^t^Bu)}](CIO4)2 [C5] | 2.9 ± 0.1 10^4 M^–1 | 0.5 | 75.4 ± 21.2 µM | 0.4 | 108 ± 79.9 µM | 40.2 ± 3.96 µM | 0.3 | 152 ± 26.8 µM |  |  |
|  | [{trans-PtCl(NH3)2(μ-pyrazine)ZnCl(terpy)}](ClO4)2 [C2b] |  |  |  |  |  |  |  |  | 16.3 µM |  |
|  | [{trans-PtCl(NH3)2(μ-pyrazine)ZnCl(terpy-Cl)}](ClO4)2 [C2a] |  |  |  |  |  |  |  |  | 231 µM |  |
| 4.5 ± 0.1 10^4 M^–1 | [{trans-PtCl(NH3)2(μ-pyrazine)ZnCl(terpy^t^Bu)}](ClO4)2 [C3] | 2.1 ± 0.1 10^4 M^–1 | 1.1 | 68.1 ± 5.21 µM | 0.4 | 210 ± 87 µM | 76.2 ± 12 µM | 0.4 | 181 ± 105 µM |  |  |
